Conditions: pampa; pH 5.0; 30.0 min; 50.0 µM

SMILES | Papp
Cc1ccc(Nc2nc(C)c(NC(=O)c3ccc(C)cc3)c(Nc3ccc(C)cc3)n2)cc1 | 6.76 ×10⁻⁶ cm/s
NC(=O)N1CCCC(C(=O)N2CCCN(c3ccc(F)cc3)CC2)C1 (stereo not drawn) | 96.2 ×10⁻⁶ cm/s
CCOC(=O)c1cnc2ccc(-c3cncc(NS(=O)(=O)c4ccccc4)c3)cn12 | 546 ×10⁻⁶ cm/s
Cc1ccc(S(=O)(=O)Nc2ccccc2C(=O)Nc2nc(-c3ccccc3)cs2)cc1 | > 1000 ×10⁻⁶ cm/s
CCCCOc1ccc(CNC(=O)c2cc3n(n2)CCCN(Cc2ccc(C)cc2)C3=O)cc1 | 867 ×10⁻⁶ cm/s
Cc1cccc(-c2noc([C@@H]3Cc4nc[nH]c4CN3)n2)c1 | 169 ×10⁻⁶ cm/s
Fc1ccc(N2CCCN(CC3[C@H]4CNC[C@@H]34)CC2)cc1 (stereo partly drawn) | 48.8 ×10⁻⁶ cm/s
CC(=O)N1CCc2c(sc3c2c(=O)n(-c2ccccc2Cl)c(=O)n3Cc2cccc(C)c2)C1 | 687 ×10⁻⁶ cm/s
Cc1cnc(-c2ccccc2C(C)C)nc1NCc1ccc(-n2ccnn2)cc1 | 663 ×10⁻⁶ cm/s
Cc1c(CN(C)c2cc(C3CC(O)C3)nc(N)n2)[nH]c2ccccc12 (stereo not drawn) | 44.8 ×10⁻⁶ cm/s
CC(C)(C)c1ccc(S(=O)(=O)N2CCC(c3ccncc3)CC2)cc1 | 754 ×10⁻⁶ cm/s
CC[C@H](C)[C@@H]([C@@H](CC(=O)N1CCC[C@H]1[C@H](OC)[C@@H](C)C(=O)N[C@@H](Cc1ccccc1)c1nccs1)OC)N(C)C(=O)[C@@H](NC(=O)[C@H](C(C)C)N(C)C)C(C)C | 224 ×10⁻⁶ cm/s
COc1ncc(-c2n[nH]c3c2CC(=O)N(c2ccccc2)C3)cn1 | 42.5 ×10⁻⁶ cm/s
Cc1ccc(CN2CCOC[C@H]2c2ncc(-c3cccc(F)c3)[nH]2)cc1 | 995 ×10⁻⁶ cm/s
COc1ccc(-c2noc(CSc3nnc(Cc4ccccc4)n3-c3ccc(F)cc3)n2)cc1 | > 1000 ×10⁻⁶ cm/s
COc1ccc(OC)c(CNc2ncnc3onc(C)c23)c1 | 250 ×10⁻⁶ cm/s
Cc1ccccc1C(=O)Nc1ccc2c(c1)CCCN2C(=O)c1cccs1 | 561 ×10⁻⁶ cm/s
CNC(=O)c1ccc(C)c(-n2c(C)cc(OCc3ccc(F)cc3F)c(Br)c2=O)c1 | 627 ×10⁻⁶ cm/s
CCOC(=O)c1ccc(N2C(=O)c3n[nH]c(-c4ccco4)c3C2c2ccc(C)cc2)cc1 (stereo not drawn) | 231 ×10⁻⁶ cm/s
Cc1noc([C@@H]2CN(C(=O)c3nn(C)c4ccccc34)C[C@H]2CO)n1 | 91.5 ×10⁻⁶ cm/s
CSc1nnc2c3ccccc3n(CCc3ccccc3)c2n1 | > 1000 ×10⁻⁶ cm/s
CCOc1ccc(CCNC(=O)c2cccc(C(=O)c3ccccc3)c2)cc1OCC | > 1000 ×10⁻⁶ cm/s
CN1CCN(C2=Nc3ccccc3Sc3ccc(Cl)cc32)CC1 | 887 ×10⁻⁶ cm/s

SMILES | Papp
CC(=O)Nc1ccc(CN2CCc3nc(C(C)C)nc(-c4ccc(Cl)cc4)c3CC2)cc1 | 476 ×10⁻⁶ cm/s
CNc1sc(-c2cccc3ccccc23)nc1C#N | 268 ×10⁻⁶ cm/s
Cc1ccc(NC(=O)C(Cc2ccccc2)NS(=O)(=O)c2cccs2)cc1Cl (stereo not drawn) | 570 ×10⁻⁶ cm/s
CCOc1cc(-c2nccc3cc(OC)c(OC)cc23)cc(OCC)c1OCC | > 1000 ×10⁻⁶ cm/s
COc1ccc(-n2nc(C3CCN([S+](=O)([O-])c4cccc(C(F)(F)F)c4)CC3)[nH]c2=O)cc1 | 434 ×10⁻⁶ cm/s
COC(=O)Nc1nc2ccc(SC(C)C)cc2[nH]1 | 510 ×10⁻⁶ cm/s
COc1cc2cc(CN3CCC(N(C)C)C3)c(-c3cccc(Cl)c3)nc2cc1OC (stereo not drawn) | 243 ×10⁻⁶ cm/s
CN1CCN(Cc2ccc(-c3ccc(C(C)(C)C#N)cc3)nc2)CC1 | 47.3 ×10⁻⁶ cm/s
Nc1c(C(=O)Nc2ccc(Cl)cc2)sc2nc3c(cc12)N1CCC3CC1 | 140 ×10⁻⁶ cm/s
O=c1ncn2nc(Sc3ccc(F)cc3F)ccc2c1-c1c(Cl)cccc1Cl | 793 ×10⁻⁶ cm/s
c1coc(-c2nc3ccncc3[nH]2)c1 | 5.56 ×10⁻⁶ cm/s
CCCCN(C)C(=O)c1c(C)sc2ccn(CCC)c(=O)c12 | 113 ×10⁻⁶ cm/s
COc1ccc2c(c1)CCc1c-2n[nH]c1C(=O)N1CCc2c(nc3cc(-c4ccccc4)[nH]n3c2=O)C1 | 15.8 ×10⁻⁶ cm/s
CC(C(O)c1ccc(O)cc1)N1CCC(Cc2ccccc2)CC1 (stereo not drawn) | 40.6 ×10⁻⁶ cm/s
CC(=O)c1c(C)oc2ccc(N(C(=O)Oc3ccccc3)S(=O)(=O)c3ccccc3)cc12 | > 1000 ×10⁻⁶ cm/s
O=C(Nc1ccccc1F)c1nc(S(=O)(=O)Cc2ccccc2F)ncc1Cl | 505 ×10⁻⁶ cm/s
COc1cc(C2CC(=O)Nc3cc4c(cc32)OCCO4)cc(Br)c1OC (stereo not drawn) | > 1000 ×10⁻⁶ cm/s
COc1cc2ncnc(Nc3ccc(Oc4ccccc4)cc3)c2cc1OC | 981 ×10⁻⁶ cm/s
COc1ccc(-n2nc(C3CCN(C(=O)Cc4ccc(F)cc4)CC3)[nH]c2=O)cc1 | 410 ×10⁻⁶ cm/s
COc1ccc(OC)c(-n2c3c(cc(-c4nc(-c5ccc(Cl)cc5)cs4)c2=O)C(=O)CC(C)(C)C3)c1 | 331 ×10⁻⁶ cm/s
NC1(c2ccccc2Cl)CCCCC1=O (stereo not drawn) | 11.1 ×10⁻⁶ cm/s
O=C(Nc1ccc2c(N3CCCCC3)ncnc2c1)c1cc(F)cc(F)c1 | 817 ×10⁻⁶ cm/s
O=C(Nc1cccc(F)c1)c1cc(-c2ccc[nH]2)n[nH]1 | 75.6 ×10⁻⁶ cm/s

SMILES | Papp
Cc1ccc(S(=O)(=O)Nc2nc3ccc(C)cc3nc2Nc2ccc3c(c2)OCO3)cc1 | 334 ×10⁻⁶ cm/s
Cc1ccc(-n2nc3c(=O)n(CCCC(=O)NCc4ccccc4F)nc(C)c3c2C)cc1 | 291 ×10⁻⁶ cm/s
c1ccc(CNc2nc(NCc3ccccc3)c3ccccc3n2)cc1 | 190 ×10⁻⁶ cm/s
CCCCn1cc2c(c1-c1ccc(Br)cc1)c(=O)n(C)c(=O)n2C | > 1000 ×10⁻⁶ cm/s
C[C@]12N[C@H](Cc3ccccc31)c1ccccc12 | 72.8 ×10⁻⁶ cm/s
CNC(=O)C1CCN(C(=O)c2ccc(-c3ncc4cnc(-c5ccccc5)cn34)cc2)CC1 | 30.1 ×10⁻⁶ cm/s
NC1CCN(C(=O)C2CCCN(c3nc(-c4ccccc4)nc4c3CCC4)C2)CC1 (stereo not drawn) | 7.56 ×10⁻⁶ cm/s
COc1ccc(-c2noc([C@@H]3Cc4nc[nH]c4CN3C(=O)NC3CCCCC3)n2)cc1 | 58.2 ×10⁻⁶ cm/s
N#Cc1cccc(NC(=O)c2sc3nc4c(cc3c2N)N2CCC4CC2)c1 | 285 ×10⁻⁶ cm/s
Cc1ccc(NC2=C(c3ccc(C(F)(F)F)cc3)C(=O)c3ccccc32)cc1F | 574 ×10⁻⁶ cm/s
Cc1nn2c(c1-c1ccccc1-c1ccccc1)N(Cc1ccc(C(=O)O)s1)CCC2 | 523 ×10⁻⁶ cm/s
CCN(C(=O)C(NS(=O)(=O)c1ccc(Br)s1)c1ccccc1)c1ccc(C)c(C)c1 (stereo not drawn) | 110 ×10⁻⁶ cm/s
CCOc1ccc(N2CC(c3nc(-c4cc(OC)c(OC)c(OC)c4)no3)CC2=O)cc1 (stereo not drawn) | > 1000 ×10⁻⁶ cm/s
COc1ccc2[nH]cc(CCNC(=O)c3cnn(-c4ccc(C)cc4)c3C3CCN(C(=O)OC(C)(C)C)CC3)c2c1 | 689 ×10⁻⁶ cm/s
C#CCOc1ccc(-c2nnc(Nc3ccc(NC(C)=O)cc3)c3ccccc23)cc1 | 265 ×10⁻⁶ cm/s
COc1ccc2c(c1)N(C[C@H](C)CN(C)C)c1ccccc1S2 | 723 ×10⁻⁶ cm/s
COc1ccccc1-c1nc(NCc2ccc(-c3cccnc3)cc2)c2ccccc2n1 | 727 ×10⁻⁶ cm/s
COc1ccccc1C(=O)NC1CCCc2c1[nH]c1c(Cl)cccc21 (stereo not drawn) | 607 ×10⁻⁶ cm/s
CC(=O)N[C@H]1CN(C2CCN(c3ccc(F)cc3C)CC2)C[C@@H]1C1CC1 | 144 ×10⁻⁶ cm/s
c1cn2cc(-c3ccc4cn[nH]c4c3)nc(Nc3ccc(N4CCOCC4)cc3)c2n1 | > 1000 ×10⁻⁶ cm/s
COc1ccc(Nc2cnc3ccc(-c4ccc(OC)c(OC)c4)nn23)cc1 | 821 ×10⁻⁶ cm/s
CCOc1ccccc1CNS(=O)(=O)c1ccc(-c2cnc(C3CC3)o2)cc1 | > 1000 ×10⁻⁶ cm/s

Source: PubChem BioAssay AID1645871
